# Source: article PMC3189933, “Acylpeptide Hydrolase Inhibition as Targeted Strategy to Induce Proteasomal Down-Regulation” (PLoS ONE, 2011)
# How the values were obtained:
# p21Waf1 in Caco-2 cells = test: Immunoblot of p21Waf1 in Caco-2 cells; format: cell-based, human; settings: 200 µM alone, 48 h
# Source text: The following antibodies were used: anti-APEH antibody (sc-102311; Santa Cruz Biotechnology); anti-NF-κB/p65 antibody (Thermo Scientific); anti-p21Waf1 antibody (Exbio); pan Ab-5 anti-actin antibody (clone ACTN05, Thermo Scientific); and monoclonal antibodies against polyubiquitinylated proteins conjugated with horseradish peroxidase (FK2H, Enzo, Life Science). The ΔF508CFTR-3HA protein was detected with an anti HA monoclonal antibody (Covance).
# APEH in BHK cells = test: APEH activity in BHK cells; format: cell-based, Baby Hamster; settings: 50 and 100 µM, 48 h
# Protocol: (§1) APEH activity was expressed in IU.
# The cells were plated in 12-well plates, to a confluence of 60% for the 24-h incubations, and 40% for 48-h exposure to PIs. These treatments were initiated 24-h after the plating of the cells. Phase-contrast images of the cells were taken just before the lysis of the cells for protein analysis, using a Lica DM6000 inverted microscope.
# [1] = system: caspase-3 in Caco-2 cells; test: Caspase-3 activity in Caco-2 cells; format: cell-based, human; settings: 48 h
# Protocol: The pro-apoptotic ability of the peptides and the CLA isomers were assayed by measuring the caspase-3 and caspase-8 activities using fluorometric kits, according to the manufacturer instructions. These assays were based on hydrolysis of the substrate acetyl-Asp-Glu-Val-Asp-7-amido-4-methylcoumarin (Ac-DEVD-AMC) or acetyl-Ile-Glu-Thr-Asp-7-amino-4-methyl coumarin (Ac-IETD-AMC) by caspase-3 and caspase-8, respectively. The release of the 7-AMC moiety in protein extracts prepared from the differently treated cells was evaluated by fluorimetry (excitation 360 nm, emission 460 nm). Their amounts were calculated by means of a standard curve prepared with pure AMC, and following normalisation for protein content, the activities were expressed as nmoles AMC/mg protein/min.
# APEH in Caco-2 cells = test: APEH activity in Caco-2 cells; settings: differentiated Caco-2 cells, 200 µM, 48 h (maximum effect)
# Protocol: Porcine liver APEH activity was measured spectrophotometrically using the chromogenic substrate acetyl-Ala-pNA (Bachem). The reaction mixture (1 mL) containing pure APEH (38 ng) or an appropriate amount of cell extract in 50 mM Tris-HCl buffer pH 7.5 (Tris Buffer), was preincubated at 37°C for 2 min. Then, 1 mM acetyl-Ala-pNA was added and the release of p-nitroanilide (ε410 = 8800 M-1 cm-1) was measured by recording the absorbance increase at 410 nm on a Cary 100 Scan (Varian) UV/Vis spectrophotometer, equipped with a thermostated cuvette compartment. APEH activity was expressed in IU. The APEHSs activity was measured using acetyl-Leu-pNA (0.1 mM) (Sigma) as substrate. The reaction mixture (1 mL) containing the appropriate amount of enzyme in 25 mM Tris-HCl buffer pH 7.5, was preincubated at 80°C for 2 min. Then, 0.1 mM acetyl-Leu-pNA was added and the release of p-nitroanilide was measured, following the standard assay procedure described above.
# Caco-2 cells (ATCC) were cultivated in DMEM supplemented with 10% FBS, 1 mM glutamine and 100 units/mL penicillin-streptomycin at 37°C in a humidified 5% CO2 atmosphere. The cells were studied between passages 12 and 22. The cells were split using trypsin-EDTA solution and plated in 6-well plates at a density of 8×10^4 cells/mL and the medium was replaced every 2–3 days. Under these conditions, the cells reached visual confluence after 7 days and the differentiated stage two weeks later. The differentiated cells were incubated for 48 h with the different substances.
# Following the treatments, the BHK and Caco-2 cells were washed three times with ice cold phosphate-buffered saline and collected immediately at 4°C in lysis buffer (1% Triton X-100, 0.1% SDS, 20 mM Tris-HCl, pH 8.0, 150 mM NaCl, 0.5% sodium deoxycholate and complete protease inhibitors [Roche]). The lysates were centrifuged at 10,000×g for 15 min at 4°C. The protein concentrations in the clear supernatants were determined (BCA protein assay reagent kit; Pierce) before their use in enzymatic assays or SDS–PAGE.
# porcine APEH = biological target: T1, porcine APEH (Sus scrofa, UniProt P19205); test: Inhibition of porcine liver APEH, Ac-Ala-pNA substrate; format: biochemical
# T1 construct: mammalian APEHs purified from both porcine liver and human colon carcinoma intestinal cells (Caco-2); purchased Takara; host or cells: porcine liver
# T1 sequence (P19205 1-732): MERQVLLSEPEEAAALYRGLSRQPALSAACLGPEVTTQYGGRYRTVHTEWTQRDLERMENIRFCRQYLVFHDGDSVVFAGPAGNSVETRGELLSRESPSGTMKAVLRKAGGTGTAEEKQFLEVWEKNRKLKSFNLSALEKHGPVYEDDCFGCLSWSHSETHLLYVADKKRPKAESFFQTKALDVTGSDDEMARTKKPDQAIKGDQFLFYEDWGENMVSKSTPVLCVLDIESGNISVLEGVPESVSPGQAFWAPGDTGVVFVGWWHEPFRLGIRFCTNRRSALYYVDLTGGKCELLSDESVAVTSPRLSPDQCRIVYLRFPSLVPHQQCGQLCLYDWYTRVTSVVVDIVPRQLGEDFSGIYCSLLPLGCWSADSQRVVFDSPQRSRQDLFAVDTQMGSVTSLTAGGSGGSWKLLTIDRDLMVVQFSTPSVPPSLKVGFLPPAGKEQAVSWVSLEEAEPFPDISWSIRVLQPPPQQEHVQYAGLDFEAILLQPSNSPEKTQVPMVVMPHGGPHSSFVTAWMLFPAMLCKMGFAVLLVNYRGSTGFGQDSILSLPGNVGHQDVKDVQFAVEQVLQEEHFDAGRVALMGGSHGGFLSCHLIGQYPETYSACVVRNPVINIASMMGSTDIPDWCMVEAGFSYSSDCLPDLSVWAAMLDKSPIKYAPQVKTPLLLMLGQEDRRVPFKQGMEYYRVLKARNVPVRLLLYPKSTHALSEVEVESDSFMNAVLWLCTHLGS
# Protocol: as §1
# Protease inhibitor activities of the SsCEI peptides and the CLA isomers were carried out using a fixed amount of APEH or partially purified proteasome (3–5 nM and 0.12 mg/mL, respectively), and increasing the SsCEI and CLA isomer concentrations. Mixtures were pre-incubated for 30 min at 37°C before the addition of the substrate, and the enzymatic activities were followed as described above. Protease inhibitor activities of the SsCEI peptides and the CLA isomers were determined towards APEHSs. The protease and increasing concentrations of the inhibitors were mixed and preincubated for 30 min at 80°C before the addition of the specific substrate. The residual enzymatic activity was determined using the assay procedure described above.
# All data were obtained from triplicate analyses of three different preparations. Data were presented as means ±S.D. Statistical analysis and IC50 values were calculated with the SigmaPlot 10.0 software through a non-linear curve-fitting method and using a simple binding isotherm equation. Groups were compared by Student's t test, and P<0.05 was considered as significant.
smiles,measurement,setting,value
"CCCCC/C=C\C=C\CCCCCCCCC(=O)O [t10c12-CLA, trans10-cis12 CLA]",increase of p21Waf1,p21Waf1 in Caco-2 cells,two
same,APEH activity in BHK cells,APEH in BHK cells,dose-dependent inhibition
same,caspase-3 activity increase,"[1]; 200 µM, vs untreated, P<0.01",about two
same,"caspase-3 activity, dose response",[1]; increasing concentrations up to 200 µM,improved at increasing doses
same,decrease of APEH activity in Caco-2 cells,APEH in Caco-2 cells,50%
same,IC50,"porcine APEH; Ac-Ala-pNA 1 mM, 50 mM Tris-HCl pH 7.5, pre-incubated 30 min at 37°C, mean ± SD, read-out: IC50 towards porcine APEH",105 ± 23 µM
same,inhibition mechanism towards porcine APEH,porcine APEH; Lineweaver-Burk plot,non–competitive
